Assay results published in PubChem BioAssay (NCI).
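Interpolation was linear, between the two tested concentrations surrounding the appropriate level; five concentrations were tested over 48 hours in 96-well plates. Here, GI50 denotes the concentration required for 50% inhibition of growth. TGI: concentration producing complete growth inhibition.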

Key:
Test in all cases: NCI anticancer screen, dose series, 48 h
SK-MEL-2 melanoma = system: SK-MEL-2 melanoma
LOX IMVI melanoma = system: LOX IMVI melanoma
M14 melanoma = system: M14 melanoma
HOP-62 NSCLC = system: HOP-62 NSCLC
SNB-19 CNS = system: SNB-19 CNS
OVCAR-3 ovarian = system: OVCAR-3 ovarian
MOLT-4 leukemia = system: MOLT-4 leukemia
SK-MEL-28 melanoma = system: SK-MEL-28 melanoma
K-562 leukemia = system: K-562 leukemia
COLO 205 colon = system: COLO 205 colon
HT29 colon = system: HT29 colon

Row | SMILES | TGI (SK-MEL-2 melanoma) | TGI (LOX IMVI melanoma) | TGI (M14 melanoma) | TGI (HOP-62 NSCLC) | TGI (SNB-19 CNS) | TGI (OVCAR-3 ovarian) | TGI (MOLT-4 leukemia) | TGI (SK-MEL-28 melanoma) | TGI (K-562 leukemia) | TGI (COLO 205 colon) | TGI (HT29 colon) | GI50 (SK-MEL-2 melanoma) | GI50 (M14 melanoma) | GI50 (HOP-62 NSCLC) | GI50 (SNB-19 CNS) | GI50 (MOLT-4 leukemia) | GI50 (SK-MEL-28 melanoma) | GI50 (K-562 leukemia) | GI50 (COLO 205 colon) | GI50 (HT29 colon)
1 | Nc1ccc(N=Nc2ccccc2)cc1 | 68.4 µM | > 100 µM | > 100 µM | > 100 µM | > 100 µM | 69.1 µM | > 100 µM | > 100 µM | > 100 µM | > 100 µM | > 100 µM |  |  |  |  |  |  |  |  | 
2 | COc1ccc(O)cc1 | > 100 µM | > 100 µM | > 100 µM | > 100 µM | > 100 µM | > 100 µM | > 100 µM | > 100 µM | > 100 µM | > 100 µM | > 100 µM |  |  |  |  |  |  |  |  | 
3 | NC1=NS(=O)(=O)Nc2nc(-c3ccc(Cl)cc3)c(-c3ccc(Cl)cc3)nc21 |  | > 100 µM | > 100 µM | > 100 µM | > 100 µM | > 100 µM | > 100 µM | > 100 µM | > 100 µM | > 100 µM | > 100 µM |  |  |  |  |  |  |  |  | 
4 | COc1ccc(/C(Cl)=C(\C=O)c2ccc(F)cc2)cc1OC | 39.4 µM | 30.7 µM | 47.9 µM | 52.6 µM | > 100 µM | 64.6 µM | 71.7 µM | 68.4 µM | 73.5 µM | 36.8 µM | 36.3 µM |  |  |  |  |  |  |  |  | 
5 | NC1=NS(=O)(=O)Nc2nc(-c3ccc([N+](=O)[O-])o3)[nH]c21 | 30.7 µM | 29.4 µM | 28.4 µM | 32.4 µM | 35.9 µM | 52.8 µM | 41 µM | 30.1 µM | 22.9 µM |  | 42.4 µM |  |  |  |  |  |  |  |  | 
6 | Nc1ccc2[nH]c3c(-c4ccccc4)nccc3c2c1 | > 100 µM | > 100 µM |  | > 100 µM | > 100 µM | > 100 µM | 22.8 µM | > 100 µM | > 100 µM | > 100 µM | > 100 µM |  |  |  |  |  |  |  |  | 
7 | O=C(NC(Cc1ccc(I)cc1)C(=O)O)c1ccc(Br)cc1 (stereo not drawn) | > 100 µM | > 100 µM |  | > 100 µM | > 100 µM | > 100 µM | > 100 µM | > 100 µM | > 100 µM | > 100 µM | > 100 µM |  |  |  |  |  |  |  |  | 
8 | N=C(N)c1ccc(N=Nc2c(O)ccc3c2[nH]c2ccccc23)cc1 | > 100 µM |  | > 100 µM | > 100 µM | > 100 µM | 5.67 µM | 5.27 µM | > 70.9 µM | 4.02 µM | > 100 µM | > 100 µM |  |  |  |  |  |  |  |  | 
9 | COC(=O)C1=C(C(=O)OC)SC2(S1)C1=C(CCCC1)SC(C(=O)OC)=C2C(=O)OC | 30 µM | 5.3 µM | 32.5 µM | 17.8 µM | 30.2 µM | 18.9 µM | 11.6 µM | 22.5 µM | 21.5 µM | 23.2 µM | 11.7 µM |  |  |  |  |  |  |  |  | 
10 | C[C@]12CCc3nc(Nc4ccccc4)sc3C1=CC[C@@H]1[C@@H]2CC[C@]2(C)/C(=N/NC(N)=S)CC[C@@H]12 | > 100 µM |  | > 100 µM | > 100 µM | > 100 µM |  | > 100 µM | > 100 µM | > 100 µM | > 100 µM | > 100 µM | 5.89 µM | 3.71 µM | 17.6 µM | 10.3 µM | 1.88 µM | 4.49 µM | 1.97 µM | 4.49 µM | 2.23 µM
11 | CCOC(=O)/C1=C(\C)N(c2ccc(C)cc2)C(=O)c2ccccc2C(=O)c2c(OC(C)=O)ccc(OC(C)=O)c21 | 82.7 µM | 41.7 µM | 54.3 µM | 87.3 µM | 90.1 µM | 39.3 µM | 21.4 µM | 12.2 µM | 38.7 µM | 26.3 µM | 35.7 µM |  |  |  |  |  |  |  |  | 
12 | COc1cc(Nc2c3ccccc3nc3ccccc23)ccc1NS(C)(=O)=O | 23.6 µM | > 100 µM | 13.5 µM | 24.3 µM | 48 µM |  | > 100 µM | 20.4 µM | > 100 µM | 16.1 µM |  |  |  |  |  |  |  |  |  | 
13 | Cc1ccc(S(=O)(=O)OCC(=O)O)cc1 | > 100 µM | > 100 µM | > 100 µM | > 100 µM | > 100 µM | > 100 µM | > 100 µM | > 100 µM | > 100 µM |  | > 100 µM |  |  |  |  |  |  |  |  | 
14 | NC1=NS(=O)(=O)Nc2nc(-c3ccc([N+](=O)[O-])cc3)[nH]c21 | > 100 µM | > 100 µM | > 100 µM | > 100 µM | > 100 µM | > 100 µM | > 100 µM | > 100 µM | > 100 µM | > 100 µM | > 100 µM |  |  |  |  |  |  |  |  | 
